Assay results published in publication PMC9486186 (Bioactive Materials, 2022).

Tested on: BCR-ABL(T315I) induced CML mice
Assay: Survival of BCR-ABL
Type: in vivo, mouse
Conditions: BPTES 10 mg/kg monotherapy

## O=C(Cc1ccccc1)Nc1nnc(CCSCCc2nnc(NC(=O)Cc3ccccc3)s2)s1 [BPTES]
  mice still alive on day 60 post BMT: 3/9
